Test results as given in BindingDB's records for doi:10.7270/Q2NZ862K (Nmmlsc, 2007).

The molecules below were run against T1, fMet-Leu-Phe receptor (Homo sapiens, UniProt P21462) (assay: FPR ligands, dose response (AID 519)).
T1 sequence (P21462 whole entry): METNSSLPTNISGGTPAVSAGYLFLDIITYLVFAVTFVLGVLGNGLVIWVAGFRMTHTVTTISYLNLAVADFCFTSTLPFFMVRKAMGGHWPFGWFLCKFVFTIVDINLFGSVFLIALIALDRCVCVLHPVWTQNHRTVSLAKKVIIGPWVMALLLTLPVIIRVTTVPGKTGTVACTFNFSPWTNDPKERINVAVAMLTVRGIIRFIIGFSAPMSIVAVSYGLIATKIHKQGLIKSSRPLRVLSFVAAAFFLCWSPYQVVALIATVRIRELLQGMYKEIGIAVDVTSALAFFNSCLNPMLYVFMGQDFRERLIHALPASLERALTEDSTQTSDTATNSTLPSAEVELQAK

Row | SMILES | Ki
1 | COc1ccc(C(=O)C2C(=O)C(=O)N(c3nc(C)c(C)s3)C2c2ccco2)cc1 (stereo not given) [(4Z)-1-(4,5-dimethyl-1,3-thiazol-2-yl)-5-(furan-2-yl)-4-[(4-methoxyphenyl)-oxidanyl-methylidene]pyrrolidine-2,3-dione] | > 43.7 µM
2 | CCOc1cccc(C(=O)C2C(=O)C(=O)N(CCOC)C2c2ccc(C)o2)c1 (stereo not given) [(4Z)-4-[(3-ethoxyphenyl)-hydroxymethylidene]-1-(2-methoxyethyl)-5-(5-methyl-2-furanyl)pyrrolidine-2,3-dione] | 8.8 µM
3 | Cc1ccc(C2C(C(=O)c3ccc(Cl)cc3)C(=O)C(=O)N2CC2CCCO2)o1 (stereo not given) [(4Z)-4-[(4-chlorophenyl)-hydroxy-methylene]-5-(5-methyl-2-furyl)-1-(tetrahydrofurfuryl)pyrrolidine-2,3-quinone] | 7.6 µM
4 | CCOc1ccc(C(=O)C2C(=O)C(=O)N(CC3CCCO3)C2c2ccco2)cc1 (stereo not given) [(4Z)-4-[(4-ethoxyphenyl)-hydroxymethylidene]-5-(2-furanyl)-1-(2-oxolanylmethyl)pyrrolidine-2,3-dione] | 21 µM
5 | CCOc1ccc(C(=O)C2C(=O)C(=O)N(CC3CCCO3)C2c2ccc(C)o2)cc1 (stereo not given) [(4Z)-4-[(4-ethoxyphenyl)-hydroxymethylidene]-5-(5-methyl-2-furanyl)-1-(2-oxolanylmethyl)pyrrolidine-2,3-dione] | 13.8 µM
6 | COc1ccc(C(=O)C2C(=O)C(=O)N(CCN3CCOCC3)C2c2ccc(C)cc2)cc1 (stereo not given) [(4Z)-4-[(4-methoxyphenyl)-oxidanyl-methylidene]-5-(4-methylphenyl)-1-(2-morpholin-4-ylethyl)pyrrolidine-2,3-dione] | > 43.7 µM
7 | Cc1ccc(C(=O)C2C(=O)C(=O)N(CCN3CCOCC3)C2c2cccnc2)cc1 (stereo not given) [(4Z)-4-[(4-methylphenyl)-oxidanyl-methylidene]-1-(2-morpholin-4-ylethyl)-5-pyridin-3-yl-pyrrolidine-2,3-dione] | > 43.7 µM
8 | COc1ccccc1C1C(C(=O)c2ccccc2)C(=O)C(=O)N1CC(C)O (stereo not given) [(4Z)-4-[hydroxy(phenyl)methylene]-1-(2-hydroxypropyl)-5-(2-methoxyphenyl)pyrrolidine-2,3-quinone] | 16.1 µM
9 | Cc1ccc(C2C(C(=O)c3cnn(-c4ccccc4)c3C)C(=O)C(=O)N2CCN2CCOCC2)o1 (stereo not given) [(4Z)-4-[hydroxy-(5-methyl-1-phenyl-4-pyrazolyl)methylidene]-5-(5-methyl-2-furanyl)-1-[2-(4-morpholinyl)ethyl]pyrrolidine-2,3-dione] | 15.2 µM
10 | COc1ccc(C2C(C(=O)c3ccccc3)C(=O)C(=O)N2CC(C)O)c(OC)c1 (stereo not given) [(4Z)-5-(2,4-dimethoxyphenyl)-4-[hydroxy(phenyl)methylene]-1-(2-hydroxypropyl)pyrrolidine-2,3-quinone] | 25.3 µM
11 | COc1ccc(OC)c(C2C(C(=O)c3ccccc3)C(=O)C(=O)N2Cc2ccco2)c1 (stereo not given) [(4Z)-5-(2,5-dimethoxyphenyl)-1-(2-furanylmethyl)-4-[hydroxy(phenyl)methylidene]pyrrolidine-2,3-dione] | 2.2 µM
12 | C=C(c1ccc(Br)cc1)c1sc(N2CCCC2)nc1O [(5Z)-5-[1-(4-bromophenyl)ethylidene]-2-(1-pyrrolidinyl)-4-thiazolone] | > 43.7 µM
13 | COC(=O)c1[nH]c(C)c(C(=O)C2C(=O)C(=O)N(CCCN3CCOCC3)C2c2ccccn2)c1C (stereo not given) [methyl 4-{[4-hydroxy-1-[3-(4-morpholinyl)propyl]-5-oxo-2-(2-pyridinyl)-2,5-dihydro-1H-pyrrol-3-yl]carbonyl}-3,5-dimethyl-1H-pyrrole-2-carboxylate] | 6.3 µM

Further lines, results first:

Row | Ki | SMILES
14 | > 43.7 µM | CCOc1cccc(C(=O)C2C(=O)C(=O)N(Cc3cccnc3)C2c2ccco2)c1 (stereo not given) [(4Z)-4-[(3-ethoxyphenyl)-hydroxymethylidene]-5-(2-furanyl)-1-(3-pyridinylmethyl)pyrrolidine-2,3-dione]
15 | > 43.7 µM | Cc1ccc(C2C(C(=O)c3ccc(Br)cc3)C(=O)C(=O)N2Cc2ccco2)o1 (stereo not given) [(4Z)-4-[(4-bromophenyl)-hydroxy-methylene]-1-(2-furfuryl)-5-(5-methyl-2-furyl)pyrrolidine-2,3-quinone]
16 | 3.6 µM | COc1ccccc1C1C(C(=O)c2ccccc2)C(=O)C(=O)N1CC(C)C (stereo not given) [(4Z)-4-[hydroxy(phenyl)methylene]-1-isobutyl-5-(2-methoxyphenyl)pyrrolidine-2,3-quinone]
17 | > 43.7 µM | COc1cccc(C(=O)C2C(=O)C(=O)N(Cc3cccnc3)C2c2ccco2)c1 (stereo not given) [(4Z)-5-(2-furanyl)-4-[hydroxy-(3-methoxyphenyl)methylidene]-1-(3-pyridinylmethyl)pyrrolidine-2,3-dione]
18 | 7.5 µM | O=c1c(C23CC4CC(CC(C4)C2)C3)c(O)n(-c2ccccc2)n1-c1ccccc1 [MLS000526352]
19 | > 43.7 µM | CCN(CC)c1ccc(C=NC(C#N)C(=N)C#N)cc1 (stereo not given) [SMR000023871]
20 | > 43.7 µM | COc1cccc(OC)c1C(=O)C(C#N)c1nc2ccccc2[nH]1 (stereo not given) [SMR000024183]
